Test results: ChEMBL document CHEMBL3124874, “Development of selective inhibitors for aldehyde dehydrogenases based on substituted indole-2,3-diones” (J Med Chem, 2014)
pIC50, pKi: −log10 of the molar value.

Assays:
[1] = target: T1, Aldehyde dehydrogenase 1A1 (Homo sapiens, UniProt P00352); assay: Inhibition of human ALDH1A1 using propionaldehyde as substrate preincubated for 2 mins followed by substrate addition by spectrophotometry in presence of NAD+
T1 sequence (P00352 whole entry): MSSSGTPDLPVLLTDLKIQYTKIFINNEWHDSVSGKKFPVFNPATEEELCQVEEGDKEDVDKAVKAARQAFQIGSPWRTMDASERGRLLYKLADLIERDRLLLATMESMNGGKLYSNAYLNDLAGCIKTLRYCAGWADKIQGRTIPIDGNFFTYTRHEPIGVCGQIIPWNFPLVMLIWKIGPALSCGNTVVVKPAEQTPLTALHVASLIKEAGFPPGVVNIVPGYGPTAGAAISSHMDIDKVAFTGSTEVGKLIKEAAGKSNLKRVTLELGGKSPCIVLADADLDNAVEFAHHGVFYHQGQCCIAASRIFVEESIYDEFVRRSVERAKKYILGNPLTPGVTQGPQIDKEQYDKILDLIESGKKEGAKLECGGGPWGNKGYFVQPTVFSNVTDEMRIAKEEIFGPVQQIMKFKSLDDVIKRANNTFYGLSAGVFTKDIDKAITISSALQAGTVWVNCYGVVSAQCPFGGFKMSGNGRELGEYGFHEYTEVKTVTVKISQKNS

[2] = target: T2, Aldehyde dehydrogenase, mitochondrial (Homo sapiens, UniProt P05091); assay: Inhibition of human ALDH2 using propionaldehyde as substrate preincubated for 2 mins followed by substrate addition by spectrophotometry in presence of NAD+
T2 sequence (P05091 whole entry): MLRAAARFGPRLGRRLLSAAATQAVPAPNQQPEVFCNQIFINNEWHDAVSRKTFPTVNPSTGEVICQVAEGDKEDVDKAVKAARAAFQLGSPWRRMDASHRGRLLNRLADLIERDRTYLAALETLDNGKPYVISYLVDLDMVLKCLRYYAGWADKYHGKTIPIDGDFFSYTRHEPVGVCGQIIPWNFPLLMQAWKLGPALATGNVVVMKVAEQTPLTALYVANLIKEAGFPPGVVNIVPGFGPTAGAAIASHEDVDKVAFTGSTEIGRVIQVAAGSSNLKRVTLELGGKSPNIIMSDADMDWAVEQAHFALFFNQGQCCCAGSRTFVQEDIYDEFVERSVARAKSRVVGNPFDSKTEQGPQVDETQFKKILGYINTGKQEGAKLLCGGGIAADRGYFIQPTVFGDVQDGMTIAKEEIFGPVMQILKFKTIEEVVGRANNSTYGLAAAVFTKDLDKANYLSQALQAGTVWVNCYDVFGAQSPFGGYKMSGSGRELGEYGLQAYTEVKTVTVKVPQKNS

[3] = target: T3, Aldehyde dehydrogenase, dimeric NADP-preferring (Homo sapiens, UniProt P30838); assay: Inhibition of full length human ALDH3A1 expressed in Escherichia coli BL21 (DE3) using benzaldehyde as substrate preincubated for 2 mins followed by substrate addition by spectrophotometry in presence of NADP+
T3 sequence (P30838 whole entry): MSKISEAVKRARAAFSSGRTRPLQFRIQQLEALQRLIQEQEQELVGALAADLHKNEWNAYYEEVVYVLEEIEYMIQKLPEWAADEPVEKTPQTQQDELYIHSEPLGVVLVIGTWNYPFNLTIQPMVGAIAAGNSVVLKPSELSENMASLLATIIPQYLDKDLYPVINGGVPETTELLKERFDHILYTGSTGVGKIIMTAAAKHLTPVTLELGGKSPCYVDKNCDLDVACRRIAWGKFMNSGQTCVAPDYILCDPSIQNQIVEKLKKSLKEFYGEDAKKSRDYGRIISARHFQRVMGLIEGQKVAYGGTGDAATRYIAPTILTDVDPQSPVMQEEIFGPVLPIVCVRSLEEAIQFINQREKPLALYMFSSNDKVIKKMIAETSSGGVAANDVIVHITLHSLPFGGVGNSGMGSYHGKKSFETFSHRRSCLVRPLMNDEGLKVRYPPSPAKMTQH

[4] = target: T3, Aldehyde dehydrogenase, dimeric NADP-preferring; assay: Inhibition of human ALDH3A1 using benzaldehyde as substrate by Lineweaver-Burk plot analysis
[5] = target: T3, Aldehyde dehydrogenase, dimeric NADP-preferring; assay: Inhibition of human ALDH3A1 by Lineweaver-Burk plot analysis in presence of NADP+
[6] = target: T1, Aldehyde dehydrogenase 1A1; assay: Competitive inhibition of human ALDH1A1 using propionaldehyde as substrate by Lineweaver-Burk plot analysis
[7] = target: T1, Aldehyde dehydrogenase 1A1; assay: Noncompetitive/mixed type inhibition of human ALDH1A1 by Lineweaver-Burk plot analysis in presence of NAD+
[8] = target: T2, Aldehyde dehydrogenase, mitochondrial; assay: Inhibition of human ALDH2 using propionaldehyde as substrate by Lineweaver-Burk plot analysis
[9] = target: T2, Aldehyde dehydrogenase, mitochondrial; assay: Inhibition of human ALDH2 by Lineweaver-Burk plot analysis in presence of NAD+

Structure (SMILES)	pIC50 [1]	pIC50 [2]	pIC50 [3]	other results
O=C1C(=O)N(C/C=C/c2ccccc2)c2ccccc21	7.15	< 4.00	6.51	
O=C1C(=O)N(CN2CCN(CN3C(=O)C(=O)c4ccccc43)C2)c2ccccc21	4.72		5.80	
CCCCCN1C(=O)C(=O)c2ccccc21	7.40	5.77	6.38	
O=C1C(=O)N(C/C=C/c2ccccc2)c2ccc(Cl)cc21	6.24			
O=C1C(=O)N(CCc2ccccc2)c2ccc(Br)cc21	5.70	7.30	4.74	
O=C1C(=O)N(CN2CCN(Cc3ccc4c(c3)OCO4)CC2)c2ccc(Br)cc21	4.82	< 4.00	4.14	
O=C1C(=O)N(CCc2ccccc2)c2ccc(Cl)cc21	7.05	6.39		
O=C1C(=O)N(CCc2ccccc2)c2ccccc21	7.15	5.46		
O=C1C(=O)N(CCCc2ccccc2)c2ccccc21	7.30	5.92	6.34	
O=C1C(=O)N(CN2CCOCC2)c2ccccc21	4.70	< 4.00	5.89	
Cc1cc(Br)c2c(c1)C(=O)C(=O)N2	6.14	5.62	6.44	pKi [4]: 6.42; pKi [5]: 6.30; pKi [6]: 6.05; pKi [7]: 6.54; pKi [8]: 6.00; pKi [9]: 5.66
CN1CCN(CN2C(=O)C(=O)c3ccccc32)CC1	4.46	< 4.00	5.80	
O=C1C(=O)N(Cc2ccccc2)c2ccc(Cl)cc21	7.22	5.68		
O=C1C(=O)N(Cc2ccccc2)c2ccc(Br)cc21	6.24	5.68		

Further lines, with some results ahead:

pIC50 [1]	pIC50 [2]	pIC50 [3]	Structure (SMILES)	other results
4.47		5.92	COc1cccc(CN2CCN(CN3C(=O)C(=O)c4ccccc43)CC2)c1	
4.30	< 4.00	6.03	O=C1C(=O)N(CN2CCN(Cc3ccccc3)CC2)c2ccccc21	
5.40		5.74	O=C1C(=O)N(CN2CCN(Cc3ccccc3F)CC2)c2ccccc21	
< 4.00		5.82	O=C1C(=O)N(CN2CCN(Cc3ccc(F)cc3)CC2)c2ccccc21	
4.46		5.72	O=C1C(=O)N(CN2CCN(Cc3cccc(F)c3)CC2)c2ccccc21	
4.92	< 4.00	6.52	O=C1C(=O)N(CN2CCN(Cc3ccc4c(c3)OCO4)CC2)c2ccccc21	
< 4.00		5.77	O=C1C(=O)N(CN2CCN(Cc3cccc(Cl)c3)CC2)c2ccccc21	
